# Measured values reported in patent US20160376659A1, “Breast Cancer Biomarker” (The University of Manchester, priority 2015, published 2016).
# Experiments:
# ALDH1A1 = details: short-term administration to patients; analysis of published microarray data; cited from earlier work
# ER+ BC = test: Tamoxifen trial study (SBII:2a), survival stratified by ALDH1; type: in vivo, human; details: 322 pre-menopausal ER+ BC patients; 2 years adjuvant tamoxifen vs no systemic treatment; ALDH1 dichotomised at median
# [1] = tested on: patient-derived ER+ tumour cells; test: Mammosphere self-renewal of patient-derived ER+ tumour cells; type: cell-based, human; details: 10^−6 M 4-hydroxy-tamoxifen vs ethanol control; secondary mammospheres 7-9 days
# [2] = tested on: Notch target genes HEY1 and HES1; test: HEY1 and HES1 expression in TAMR, FULVR and parental MCF-7 cells; type: cell-based, human; details: TAMR and FULVR cell lines; 72 h
# Procedure: MCF7, T47D and ZR-75-1 cell lines were purchased from American Tissue Culture Collection (ATCC) and cultured in DMEM/F-12, GlutaMAX (Gibco) with 10% FBS (Gibco). […] MCF7 resistant cell lines were authenticated by comparative karyotyping to ATCC-derived MCF7. Total RNA was extracted using the RNeasy Plus Mini Kit (QIAGEN, 74104) and the concentration and purity determined using an ND-1000 spectrophotometer (NanoDrop Technologies). Reverse transcription of 1 μg of RNA was performed with Oligo(dT) using the TaqMan Reverse Transcription Reagents from Applied Biosystems (N8080234). Samples were incubated on a thermal cycler (MJ Research) for 10 minutes at 25° C., 30 minutes at 48° C. and 5 minutes at 95° C. Quantitative real-time PCR reactions were set up in triplicate in 384-well plates and performed on the 7900 PCR machine (Applied Biosystems) using TaqMan® Universal PCR Master Mix (Applied Biosystems) and probes from Universal Probe Library (Roche). Conditions used for amplification of cDNA fragments were as follows: 95° C. for 5 min, 40 cycles of amplification-95 C for 15 sec, 60 C for 1 min. The expression levels were calculated using the ΔΔCt method and normalised to the housekeeping genes 36B4 and GAPDH. The sequences of the primers and probes used can be found in the table below.
# [3] = tested on: CBF1-Notch transcriptional activity; test: Notch transcriptional assay (10×CBF1-luciferase reporter); type: cell-based, human; details: TAMR and FULVR cell lines; 72 h
# Procedure: MCF7 resistant cell lines were authenticated by comparative karyotyping to ATCC-derived MCF7. To measure the activation of Notch dependent transcription, cells were transfected with CBF1 firefly luciferase reporter (containing 10 copies of a CBF1 consensus sequence) and CMV-Renilla luciferase reporter. Plasmids were incubated with […] (Roche, 06366244001) in a ratio of 3:1 (μl of […] of DNA) in OptiMEM (Life Technologies, 11058-021) for 15 minutes, before addition to the culture media. After 48 hours cells were lysed with 1× Passive lysis buffer (5×, Promega, E 1941), put on the rocker for 15 minutes and luminescence was assayed with the Dual-Glo Luciferase assay system (Promega, E2920) following manufacturer's instructions. Luciferase activity was measured using a luminometer (Promega, Glomax Multi+ Detection System with Instinct Software). Luminescence of the firefly luciferase was normalised to that of the renilla luciferase.
compound,measurement,setting,value
C[C@]12CC[C@@H]3c4ccc(O)cc4C[C@@H](CCCCCCCCC[S+]([O-])CCCC(F)(F)C(F)(F)F)[C@H]3[C@@H]1CC[C@@H]2O (some centres unmarked) [fulvestrant],expression of the ALDH1A1 gene in breast tumors,ALDH1A1,significantly increased
"CC/C(=C(\c1ccccc1)c1ccc(OCCN(C)C)cc1)c1ccccc1 [tamoxifen, (Z)-2-[4-(1,2-diphenylbut-1-enyl)phenoxy]-N,N-dimethylethanamine]",survival benefit from tamoxifen by epithelial ALDH1 expression,ER+ BC,improvement in survival (ie. a response to treatment) was only seen in women with low epithelial ALDH1 expression
same,mammosphere self-renewal,[1],about two-fold
CC(C)(C(=O)NCC(F)(F)C(F)(F)F)C(=O)N[C@@H]1C(=O)Nc2ccccc2-c2ccccc21 [RO4929097],HEY1 and HES1 expression,[2],inhibited
same,CBF1-Notch transcriptional activity,[3],inhibited
